The values that follow come from article PMC2695807, “Plant Insecticide L-Canavanine Repels Drosophila via the Insect Orphan GPCR DmX” (PLoS Biology, 2009).

For the assay, the target named is T1, DmX receptor (DmXR) (Drosophila melanogaster, UniProt Q70GQ8).
T1 construct: gene mtt; HA-DmXR WT, transiently expressed in HEK 293 cells
T1 sequence (Q70GQ8 1-1073): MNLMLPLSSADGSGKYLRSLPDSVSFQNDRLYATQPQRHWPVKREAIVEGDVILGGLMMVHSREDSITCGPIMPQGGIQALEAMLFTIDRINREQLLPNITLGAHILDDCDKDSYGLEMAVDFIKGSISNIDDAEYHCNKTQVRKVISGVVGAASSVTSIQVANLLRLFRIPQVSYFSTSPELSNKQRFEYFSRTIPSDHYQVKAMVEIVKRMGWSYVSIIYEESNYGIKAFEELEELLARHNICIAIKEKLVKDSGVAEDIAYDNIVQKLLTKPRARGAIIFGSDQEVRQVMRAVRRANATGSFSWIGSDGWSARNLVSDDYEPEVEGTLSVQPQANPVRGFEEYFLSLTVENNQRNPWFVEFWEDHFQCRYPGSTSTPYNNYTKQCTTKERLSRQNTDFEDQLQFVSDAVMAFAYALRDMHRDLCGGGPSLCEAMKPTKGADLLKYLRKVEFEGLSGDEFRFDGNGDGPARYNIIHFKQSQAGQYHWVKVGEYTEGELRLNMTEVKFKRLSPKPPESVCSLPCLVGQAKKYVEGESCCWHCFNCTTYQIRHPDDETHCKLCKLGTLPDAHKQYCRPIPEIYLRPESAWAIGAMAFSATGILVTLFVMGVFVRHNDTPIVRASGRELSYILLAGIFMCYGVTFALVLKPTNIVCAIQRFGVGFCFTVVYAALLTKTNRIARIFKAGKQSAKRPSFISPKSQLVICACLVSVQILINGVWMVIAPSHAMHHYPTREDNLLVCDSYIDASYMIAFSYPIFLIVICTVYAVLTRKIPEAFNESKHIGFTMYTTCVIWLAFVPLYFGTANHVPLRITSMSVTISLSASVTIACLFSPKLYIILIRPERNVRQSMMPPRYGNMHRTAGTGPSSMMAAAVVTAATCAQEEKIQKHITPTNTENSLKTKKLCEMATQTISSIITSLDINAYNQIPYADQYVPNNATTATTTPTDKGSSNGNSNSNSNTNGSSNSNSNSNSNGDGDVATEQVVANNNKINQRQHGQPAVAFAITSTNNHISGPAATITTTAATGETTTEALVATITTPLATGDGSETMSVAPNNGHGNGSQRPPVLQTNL
In words: IP accumulation in HEK cells coexpressing DmXR and Gqi9; inhibition of activation by […] L-canavanine (antagonist). The class given is cell-based.

`CN=C(N)NCCC[C@H](N)C(=O)O` [NMA, N-methyl-L-arginine] displayed an IC50 of 200 ± 200 µM.

In general, IC50 refers to the concentration that inhibits the measured activity by half.
